Reference: patent US20170281651A1, “CONCOMITANT ADMINISTRATION OF GLUCOCORTICOID RECEPTOR MODULATORS AND CYP3A OR STEROIDOGENESIS INHIBITORS” (Corcept Therapeutics, Inc., priority 2017, published 2017)
Like-named read-outs stand apart in the source and are kept apart here.

Test: Example 2: effect of a 400 mg single dose of ketoconazole on PK of an 8-day regimen of 300 mg or 600 mg OD mifepristone, moderate fat breakfast
Format: in vivo, human
Conditions: for Cmax / AUC(0-t) / Tmax / half-life: male, human, plasma, oral; for AUC(0-t): read-out: AUCt (AUC0-24 hours, mean); for Tmax: read-out: Tmax (median); for half-life: read-out: T1/2 (mean) (converted)
Protocol: This was an open-label study in healthy male subjects. […] The 400 mg single dose of ketoconazole was given to all subjects on day 8.
METHODOLOGY: Twelve subjects were enrolled, six in Cohort 1 and 6 in Cohort 2.
Subjects were discharged on Day 11.
Subjects were discharged on Day 11. Subjects in both cohorts returned to study center on Day 13 for safety monitoring, collection of the 120-hour PK draw, and completion of the Termination Visit procedures, followed by discharge from the study. To the extent possible, any adverse events deemed study drug-related and that were ongoing at the time of discharge from the study were followed-up to resolution or until a determination was made that the unresolved event was stable.
DIAGNOSIS AND MAIN […] FOR INCLUSION: Healthy male volunteers between the ages of 18 to 45 years of age with a body mass index (BMI) ranging between 19 and 32 kg/m2 and a weight of at least 60 kg (132 lbs) were enrolled. Subjects had no clinically significant abnormal findings on the physical examination, ECG, blood pressure, heart rate, medical history, or clinical laboratory results during screening. The QTc interval at screening was less than 450 msec.
DURATION OF TREATMENT: Up to a total of 28 days, including up to 2 weeks screening, dosing on Days 1-8, safety observation, and PK sample collection through Day 13.
Additionally, comparisons were made between the PK results of cohort 1 and 2. Pharmacokinetic parameters Cmax, T1/2 and total AUC were calculated for plasma concentrations of ketoconazole following the single dose on Day 8. Descriptive statistics (count, mean, median, standard deviation, minimum, maximum, and % coefficient of variation) were provided. Ketoconazole concentrations were listed and summarized. GM means of Cmax and total AUC were compared for the single dose in this study to the combined data of reported 400 mg single doses of ketoconazole of healthy subjects from the literature.

[1] = C1 Day 8/Day 7 (300 mg/d, with vs without 400 mg Keto)
[2] = C2 Day 8/Day 7 (600 mg/d, with vs without 400 mg Keto)
[3] = Cohort 1 (300 mg OD), Day 8 with 400 mg ketoconazole relative to Day 7 without
[4] = Cohort 2 (600 mg OD), Day 8 with 400 mg ketoconazole vs Day 7
[5] = Day 7 C2/C1 (600 vs 300 mg/d, no ketoconazole)
[6] = Day 8 C2/C1 (600 vs 300 mg/d, with 400 mg Keto)
[7] = Day 8 in the presence of 400 mg ketoconazole
[8] = 300 mg/d, MIFE 300 mg/d, C1 Day 7, no ketoconazole
[9] = 600 mg/d, MIFE 600 mg/d, C2 Day 7, no ketoconazole
[10] = MIFE 300 mg/d, C1 Day 8, + 400 mg Keto single dose
[11] = MIFE 600 mg/d, C2 Day 8, + 400 mg Keto single dose

CC#C[C@]1(O)CC[C@H]2[C@@H]3CCC4=CC(=O)CCC4=C3[C@@H](c3ccc(N(C)C)cc3)C[C@@]21C [mifepristone, 11β-(4-dimethylaminophenyl)-17β-hydroxy-17α-(1-propynyl)-estra-4,9-dien-3-one]
Mean Ratio AUCt [1]: 1.25
Mean Ratio Cmax [1]: 1.19
Mean Ratio AUCt [2]: 1.28
Mean Ratio Cmax [2]: 1.39
increase in AUC0-24 [3]: 25%
increase in Cmax [3]: 20%
increase in AUC0-24 [4]: 28%
increase in Cmax [4]: 39%
Mean Ratio AUCt [5]: 1.48
Mean Ratio Cmax [5]: 1.42
AUC0-24 greater at 600 mg OD than at 300 mg OD (Day 7 without ketoconazole): 48%
Cmax greater at 600 mg OD than at 300 mg OD (Day 7 without ketoconazole): 42%
Mean Ratio AUCt [6]: 1.52
Mean Ratio Cmax [6]: 1.65
AUC0-24 greater at 600 mg OD than at 300 mg OD [7]: 52%
Cmax greater at 600 mg OD than at 300 mg OD [7]: 65%
half-life greater at 600 mg OD than at 300 mg OD [7]: 13%
Cmax [8]: 2700 ng/mL
AUC(0-t) [8]: 37700 ng·h/mL
Tmax [8]: 3 h
Cmax [9]: 3820 ng/mL
AUC(0-t) [9]: 54200 ng·h/mL
Tmax [9]: 4 h
Cmax [10]: 3240 ng/mL
AUC(0-t) [10]: 47400 ng·h/mL
half-life [10]: 3.54 days
Tmax [10]: 2.1 h
Cmax [11]: 5260 ng/mL
AUC(0-t) [11]: 69100 ng·h/mL
half-life [11]: 4.01 days
Tmax [11]: 4 h
